Laboratory results from patent US11000033B2, “Ketone or oxime compound, and herbicide” (NISSAN CHEMICAL CORPORATION, priority 2014, dated 2021).

Legend:
Assay type in all cases: in vivo
[1] = test system: Echinochloa oryzacola Vasing.; test: Test Example 1: herbicidal activity, application before weed generation in submerged conditions (symbol A); settings: application herbicide amount 320 g/ha
Summary of the method: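 Pre-emergence, paddy conditions: emulsifiable formulation diluted in water, dosed onto floodwater (4 cm depth) on sowing day. Alluvial soil; weeds sown mixed; rice transplanted at 2.5-leaf stage. Greenhouse 25–30 °C, 3 wk. Score 0–5 (5 = ≥90% kill, 0 = ≤5%).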

transplanted rice plant = test: Test Example 1: effect on crop, application before weed generation in submerged conditions (symbol a); settings: application herbicide amount 320 g/ha
Summary of the method: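 Rice at 2.5 leaf stage transplanted into submerged soil (4 cm depth) sown with three weed species; herbicide applied before weed emergence.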

Scirpus juncoides = test: Test Example 2: herbicidal activity, application during weed generation in submerged conditions (symbol B); settings: Table 23; application herbicide amount 320 g/ha; grade 0-5 by criteria of Test Example 1
Summary of the method: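 Weeds emerging under flooded conditions were treated with compound formulated as an emulsion and diluted with water to the intended herbicide amount, poured onto the surface of 4 cm standing water. Seeds had been co-sown in alluvial soil; plants grew at 25° C. to 30° C. and were assessed after 3 weeks.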

[2] = test system: Echinochloa crus-galli var. crus-galli; test: Test Example 3: herbicidal effect by foliage application, Wagner pot (symbol H); settings: application herbicide amount 320 g/ha
Summary of the method: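 Alluvial soil was flooded to a depth of 0.1–0.5 cm, seeded with the weeds and rice, and kept in a greenhouse at 25–30 °C. After 14 days of growth, the foliage received a small-sprayer application of emulsion diluted to the intended rate; injury was rated at 3 weeks.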

[3] = test system: directly sowed rice plant; test: Test Example 3: effect on crop by foliage application, Wagner pot (symbol b); settings: application herbicide amount 320 g/ha
Summary of the method: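 Alluvial soil in a 1/10000-are Wagner pot was flooded to a water depth of 0.1–0.5 cm. Echinochloa crus-galli var. crus-galli, Leptochloa chinensis, Cyperus difformis and rice were sown into it and grown in a greenhouse at 25–30 °C.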

wheat [4] = test: Test Example 4: effect on crop by soil treatment (symbol e); settings: 320 g/ha
Summary of the method: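 Plants grew in a 25° C. to 30° C. greenhouse after spot-sowing of seeds, including beet, rapeseed, wheat and rice, into sterilized diluvial soil under roughly 1.5 cm of cover soil.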

Alopecurus myosuroides = test: Test Example 5: herbicidal effect by foliage application, plastic box (symbol J); settings: 320 g/ha, 3 weeks after application
Summary of the method: (§1)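 Greenhouse foliar test: seedlings at 14 days, grown 25° C. to 30° C. in sterilized diluvial soil; compound applied as an aqueous dilution of an emulsion; response read 3 weeks after spraying.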

Amaranthus retroflexus = test: Test Example 5: herbicidal effect by foliage application, plastic box (symbol N); settings: 320 g/ha, 3 weeks after application
Summary of the method: as §1

Stellaria media = test: Test Example 5: herbicidal effect by foliage application, plastic box (symbol P); settings: 320 g/ha, 3 weeks after application
Summary of the method: as §1

corn = test: Test Example 5: effect on crop by foliage application, plastic box (symbol c); settings: 320 g/ha, 3 weeks after application
Summary of the method: (§2)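 Crop seed is sown alongside grass and broadleaf weed species in spots in sterilized diluvial soil, then covered to a depth of about 1.5 cm. Plants grow in a greenhouse kept at 25° C. to 30° C.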

rice plant = test: Test Example 5: effect on crop by foliage application, plastic box (symbol b); settings: 320 g/ha, 3 weeks after application
Summary of the method: as §2

wheat [5] = test: Test Example 5: effect on crop by foliage application, plastic box (symbol e); settings: 320 g/ha, 3 weeks after application
Summary of the method: as §2

beet = test: Test Example 5: effect on crop by foliage application, plastic box (symbol f); settings: 320 g/ha, 3 weeks after application
Summary of the method: as §2

Compound | Herbicidal effect grade, A: Echinochloa oryzacola Vasing. [1] | Effect grade on crop, a: transplanted rice plant (transplanted rice plant) | Herbicidal effect grade, B: Scirpus juncoides (Scirpus juncoides) | herbicidal effect on H (Echinochloa crus-galli var. crus-galli), grade 0-5 [2] | effect on crop b (directly sowed rice plant), grade 0-5 [3] | e: wheat, effect grade on crop (wheat [4]) | J: Alopecurus myosuroides, herbicidal effect (criteria 0-5) (Alopecurus myosuroides) | N: Amaranthus retroflexus, herbicidal effect (criteria 0-5) (Amaranthus retroflexus) | P: Stellaria media, herbicidal effect (criteria 0-5) (Stellaria media) | c: corn, effect on crop (criteria 0-5) (corn) | b: directly sowed rice plant, effect on crop (criteria 0-5) (rice plant) | e: wheat, effect on crop (criteria 0-5) (wheat [5]) | f: beet, effect on crop (criteria 0-5) (beet)
CCCC=CC(=O)OC1=C(c2c(C)cc(C)cc2C)C(=O)C(CC(C)=NOC)C1 (stereo not drawn) [1-090] | 5 (Herbicidal ratio of 90% or more (almost completely withered)) | 5 (Herbicidal ratio of 90% or more (almost completely withered)) | 5 (Herbicidal ratio of 90% or more (almost completely withered)) | 5 (Herbicidal ratio of 90% or more (almost completely withered)) | 5 (Herbicidal ratio of 90% or more (almost completely withered)) | 4 (Herbicidal ratio of 70% or higher and lower than 90%) | 5 (Herbicidal ratio of 90% or more (almost completely withered)) | 1 (Herbicidal ratio of 5% or higher and lower than 20%) | 3 (Herbicidal ratio of 40% or higher and lower than 70%) | 5 (Herbicidal ratio of 90% or more (almost completely withered)) | 5 (Herbicidal ratio of 90% or more (almost completely withered)) | 5 (Herbicidal ratio of 90% or more (almost completely withered)) | 0 (Herbicidal ratio of 5% or lower (almost no effect))
CON=C(C)CC1CC(OC(=O)C=Cc2ccco2)=C(c2c(C)cc(C)cc2C)C1=O (stereo not drawn) [1-091] | 5 (Herbicidal ratio of 90% or more (almost completely withered)) | 4 (Herbicidal ratio of 70% or higher and lower than 90%) | 3 (Herbicidal ratio of 40% or higher and lower than 70%) | 5 (Herbicidal ratio of 90% or more (almost completely withered)) | 5 (Herbicidal ratio of 90% or more (almost completely withered)) | 4 (Herbicidal ratio of 70% or higher and lower than 90%) | 5 (Herbicidal ratio of 90% or more (almost completely withered)) | 3 (Herbicidal ratio of 40% or higher and lower than 70%) | 0 (Herbicidal ratio of 5% or lower (almost no effect)) | 5 (Herbicidal ratio of 90% or more (almost completely withered)) | 5 (Herbicidal ratio of 90% or more (almost completely withered)) | 5 (Herbicidal ratio of 90% or more (almost completely withered)) | 0 (Herbicidal ratio of 5% or lower (almost no effect))
CON=C(C)CC1CC(OC(=O)COCC(F)(F)F)=C(c2c(C)cc(C)cc2C)C1=O (stereo not drawn) [1-092] | 5 (Herbicidal ratio of 90% or more (almost completely withered)) | 5 (Herbicidal ratio of 90% or more (almost completely withered)) | 4 (Herbicidal ratio of 70% or higher and lower than 90%) | 5 (Herbicidal ratio of 90% or more (almost completely withered)) | 5 (Herbicidal ratio of 90% or more (almost completely withered)) | 4 (Herbicidal ratio of 70% or higher and lower than 90%) | 4 (Herbicidal ratio of 70% or higher and lower than 90%) | 3 (Herbicidal ratio of 40% or higher and lower than 70%) | 0 (Herbicidal ratio of 5% or lower (almost no effect)) | 5 (Herbicidal ratio of 90% or more (almost completely withered)) | 5 (Herbicidal ratio of 90% or more (almost completely withered)) | 4 (Herbicidal ratio of 70% or higher and lower than 90%) | 0 (Herbicidal ratio of 5% or lower (almost no effect))
COCC(=O)OC1=C(c2c(C)cc(C)cc2C)C(=O)C(CC(C)=NOC)C1 (stereo not drawn) [1-093] | 5 (Herbicidal ratio of 90% or more (almost completely withered)) | 5 (Herbicidal ratio of 90% or more (almost completely withered)) | 5 (Herbicidal ratio of 90% or more (almost completely withered)) | 5 (Herbicidal ratio of 90% or more (almost completely withered)) | 5 (Herbicidal ratio of 90% or more (almost completely withered)) | 4 (Herbicidal ratio of 70% or higher and lower than 90%) | 5 (Herbicidal ratio of 90% or more (almost completely withered)) | 4 (Herbicidal ratio of 70% or higher and lower than 90%) | 2 (Herbicidal ratio of 20% or higher and lower than 40%) | 5 (Herbicidal ratio of 90% or more (almost completely withered)) | 5 (Herbicidal ratio of 90% or more (almost completely withered)) | 5 (Herbicidal ratio of 90% or more (almost completely withered)) | 0 (Herbicidal ratio of 5% or lower (almost no effect))
CON=C(C)CC1CC(OC(=O)COCc2ccccc2)=C(c2c(C)cc(C)cc2C)C1=O (stereo not drawn) [1-094] | 5 (Herbicidal ratio of 90% or more (almost completely withered)) | 5 (Herbicidal ratio of 90% or more (almost completely withered)) | 5 (Herbicidal ratio of 90% or more (almost completely withered)) | 5 (Herbicidal ratio of 90% or more (almost completely withered)) | 5 (Herbicidal ratio of 90% or more (almost completely withered)) | 3 (Herbicidal ratio of 40% or higher and lower than 70%) | 5 (Herbicidal ratio of 90% or more (almost completely withered)) | 2 (Herbicidal ratio of 20% or higher and lower than 40%) | 3 (Herbicidal ratio of 40% or higher and lower than 70%) | 5 (Herbicidal ratio of 90% or more (almost completely withered)) | 5 (Herbicidal ratio of 90% or more (almost completely withered)) | 5 (Herbicidal ratio of 90% or more (almost completely withered)) | 0 (Herbicidal ratio of 5% or lower (almost no effect))
CC#CC(=O)OC1=C(c2c(C)cc(C)cc2C)C(=O)C(CC(C)=NOC)C1 (stereo not drawn) [1-095] | 5 (Herbicidal ratio of 90% or more (almost completely withered)) | 5 (Herbicidal ratio of 90% or more (almost completely withered)) | 4 (Herbicidal ratio of 70% or higher and lower than 90%) | 5 (Herbicidal ratio of 90% or more (almost completely withered)) | 5 (Herbicidal ratio of 90% or more (almost completely withered)) | 4 (Herbicidal ratio of 70% or higher and lower than 90%) | 5 (Herbicidal ratio of 90% or more (almost completely withered)) | 3 (Herbicidal ratio of 40% or higher and lower than 70%) | 2 (Herbicidal ratio of 20% or higher and lower than 40%) | 5 (Herbicidal ratio of 90% or more (almost completely withered)) | 5 (Herbicidal ratio of 90% or more (almost completely withered)) | 5 (Herbicidal ratio of 90% or more (almost completely withered)) | 0 (Herbicidal ratio of 5% or lower (almost no effect))
